Data taken from US20170224683A1, “TREATMENT OF MELANOMA BY BLOCKING BENZAMIL SENSITIVE ION CHANNELS/EXCHANGERS” (The Board of Trustees of the Leland Stanford Junior …, priority 2014, published 2017).

Columns and labels:
Assay type in all cases: cell-based
[1] = system: V12 Rac1 mutant primary foreskin-derived melanocytes; assay: MTT proliferation assay, V12 Rac1 melanocytes
Description: FIG. 1A-1C: Benzamil inhibits V12 Rac1 driven melanocyte invasion and proliferation in vitro. […] Invasion was abolished in conditions treated with 50 uM Benzamil (FIG. 1A, FIG. 1B).
Invasion was abolished in conditions treated with 50 μM Benzamil.
(§1) MTT proliferation assay. 25000 melanocytes were plated in each well in a 96 well plate, and incubated with 100 ul DMEM with 10% FBS 1% AA for 24 hours. 10 ul MTT reagent (MTT proliferation assay, ATCC, Manassas, US) was added for 4 hours, 100 ul detergent was added to each well for 2 hours., and absorbance read at 570 nm (Spectramax M5, Molecular Devices, US), normalized to cell-free control absorbance.

CHL1 melanoma cell line = assay: MTT proliferation assay, CHL1; conditions: 50 uM
Description: (§2) FIG. 3A-3D: Benzamil reduce invasion and proliferation of melanoma cell lines expressing increased Rac1GTP. […] Stimulation with Benzamil at 50 uM was not toxic, but reduced proliferation in COLO829,MM485,CHL1 melanoma cell lines similar to V12 Rac1 mutant primary melanocytes FIG. 3D.
(§3) Benzamil reduce invasion and proliferation of melanoma cell lines expressing increased Rac1GTP. […] Stimulation with Benzamil at 50 μM was not toxic, but reduced proliferation in COLO829,MM485,CHL1 melanoma cell lines similar to V12 Rac1 mutant primary melanocytes.
as §1

[2] = system: COLO829 melanoma cell line; assay: MTT proliferation assay, COLO829; conditions: 50 uM
Description: as §2, §3, §1

MM485 melanoma cell line = assay: MTT proliferation assay, MM485; conditions: 50 uM
Description: as §2, §3, §1

NC(=NCc1ccccc1)NC(=O)c1nc(Cl)c(N)nc1N [Benzamil, benzyl amiloride]
Dosage tolerated in vitro (assessed by detectable proliferation) [1]: up to 100 uM | toxicity (CHL1 melanoma cell line): not toxic | toxicity [2]: not toxic | toxicity (MM485 melanoma cell line): not toxic
